According to ChEMBL document CHEMBL4483862, “Open-source discovery of chemical leads for next-generation chemoprotective antimalarials” (2018):
pIC50: −log10 of the molar value.

Test system: Plasmodium berghei
Test: Luciferase/luciferin-expressing antifolate-resistant parasites were used to infect a culture of HepG2 cells that were pre-incubated with compounds. Infected hepatocytes emit light due to the luciferase reaction. Assay results are presented as the percent inhibition of light emission compared to control. […]
Type: functional
Conditions: sporozoite; for IC90: read-out: LUCIFERASE INFECTION ASSAY - IC90
[1] = read-out: LUCIFERASE INFECTION ASSAY - IC50

Structure (SMILES)	IC90 [µM]	pIC50 [1]	also measured
COc1ccc(O)c(C(=O)c2cc(Cl)c3nc4ccccc4c(=O)n3c2)c1	0.494		pIC50 (PBLUC_HILL_SLOPE 1.52, PBLUC_R_SQUARED 0.671, read-out: LUCIFERASE INFECTION ASSAY - IC50): 6.93
CNC(=O)c1nn(CC2CCCCC2)c2c1CC(NC1CCCC1)CC2 (stereo not given)	> 9.2		pIC50 (PBLUC_HILL_SLOPE 1.5, PBLUC_R_SQUARED 0.479, read-out: LUCIFERASE INFECTION ASSAY - IC50): 5.36
Cc1ccc(S(=O)(=O)c2c(C)nn(C(C)(C)C)c2OC(=O)c2cccs2)cc1	> 10	< 5.00	
CCCn1c(NC(=O)c2ccc(OCc3c(C)noc3C)c(OC)c2)nc2ccccc21	> 10		pIC50 (PBLUC_HILL_SLOPE 3.7, PBLUC_R_SQUARED 0.447, read-out: LUCIFERASE INFECTION ASSAY - IC50): 5.21
COC(=O)c1c(C)[nH]c(-c2nc(NCc3ccc(C)cc3)sc2C)c1C	8.74		pIC50 (HEPG2TOX_HILL_SLOPE 1.4, HEPG2TOX_R_SQUARED 0.957, PBLUC_HILL_SLOPE 3.81, PBLUC_R_SQUARED 0.59, read-out: LUCIFERASE INFECTION ASSAY - IC50): 5.31
O=C(Nc1nc2ccccc2[nH]1)C(Sc1ccccc1)c1ccccc1 (stereo not given)	> 10	< 5.00	
O=C1NC2(CCCc3ccccc32)C(=O)N1Cc1cc2ccccc2nc1Cl (stereo not given)	9.89		pIC50 (FFLUC_HILL_SLOPE 2.55, FFLUC_R_SQUARED 0.444, HEPG2TOX_HILL_SLOPE 2.36, HEPG2TOX_R_SQUARED 0.953, PBLUC_HILL_SLOPE 3.3, PBLUC_R_SQUARED 0.364, read-out: LUCIFERASE INFECTION ASSAY - IC50): 5.29
CCNC(=O)C1CCCN(Cc2ccc3ccccc3c2Br)CC1 (stereo not given)	3.91		pIC50 (PBLUC_HILL_SLOPE 11.4, PBLUC_R_SQUARED 0.606, read-out: LUCIFERASE INFECTION ASSAY - IC50): 5.49
COC(=O)c1ccc(NC(=O)c2ccc(-c3cccc(Br)c3)nc2C)s1	> 10		pIC50 (PBLUC_HILL_SLOPE 7.52, PBLUC_R_SQUARED 0.673, read-out: LUCIFERASE INFECTION ASSAY - IC50): 5.04
Cc1ccc(S(=O)(=O)Nc2cc(SCC(=O)O)c(O)c3ccccc23)cc1	> 10		pIC50 (PBLUC_HILL_SLOPE 1.74, PBLUC_R_SQUARED 0.143, read-out: LUCIFERASE INFECTION ASSAY - IC50): < 5.00
COc1ccc(OC)c(CN2CCN(c3nn4cc(-c5ccccc5)nc4s3)CC2)c1	> 10		pIC50 (PBLUC_HILL_SLOPE 9.65, 2.13, PBLUC_R_SQUARED 0.339, 0.240, read-out: LUCIFERASE INFECTION ASSAY - IC50): 5.17
COc1cc(Nc2ncnc3ccsc23)cc(OC)c1	2.61	6.01	
Cc1nc(C(=O)N2CCc3c(c(C(=O)NCc4ccccn4)nn3CCc3ccccc3)C2)cs1	2.47		pIC50 (PBLUC_HILL_SLOPE 26.7, PBLUC_R_SQUARED 0.676, read-out: LUCIFERASE INFECTION ASSAY - IC50): 5.64
Cn1ccc2cc(-c3cnc4cnc(-c5ccccc5CO)cn34)ccc21	0.0193		
C=CCn1c(COc2ccccc2F)nnc1Sc1cc(C)nc2ncnn12	> 10	< 5.00	
COc1cccc(N2CCN(CC(=O)c3c[nH]c4ccccc34)CC2C)c1 (stereo not given)	> 9.08		pIC50 (PBLUC_HILL_SLOPE 1.43, PBLUC_R_SQUARED 0.653, read-out: LUCIFERASE INFECTION ASSAY - IC50): 5.33
CCOC(=O)c1c(C)oc(NC(=O)CSc2nnc(-c3ccccc3)n2-c2ccc(C)c(C)c2)c1C#N	> 10	< 5.00	

Structure (SMILES)	IC90 [µM]	pIC50 [1]	also measured
Fc1ccccc1COc1ccccc1CNCc1cccnc1	> 10.2	< 4.99	
Clc1cccc(-c2cc3c(Nc4ccc5c(c4)OCCO5)nccc3[nH]2)c1	> 10		pIC50 (HEPG2TOX_HILL_SLOPE 12.1, HEPG2TOX_R_SQUARED 0.71, PBLUC_HILL_SLOPE 1.15, PBLUC_R_SQUARED 0.766, read-out: LUCIFERASE INFECTION ASSAY - IC50): 5.76
Cc1ccc(-c2nnc(SCC(=O)Nc3ccc(S(=O)(=O)N4CCCC4)cc3)[nH]2)cc1	> 10	< 5.00	
O=C(CNC(=O)c1ccc(Oc2ccccc2)cc1)Nc1nccs1	> 10		pIC50 (PBLUC_HILL_SLOPE 15.5, PBLUC_R_SQUARED 0.469, read-out: LUCIFERASE INFECTION ASSAY - IC50): 5.03
CN(C)C(=O)Cc1nc(CSc2nc3ncccn3n2)cs1	> 10	< 5.00	
COc1cccc(-c2cn3c(-c4ccc5c(ccn5C)c4)cnc3cn2)c1F	0.145		pIC50 (HEPG2TOX_HILL_SLOPE 1.41, HEPG2TOX_R_SQUARED 0.854, PBLUC_HILL_SLOPE 2.39, PBLUC_R_SQUARED 0.955, read-out: LUCIFERASE INFECTION ASSAY - IC50): 7.24
COc1ccc(-c2cnc3cnc(-c4ccc(N)nc4)cn23)cc1	8		pIC50 (PBLUC_HILL_SLOPE 1.84, PBLUC_R_SQUARED 0.648, read-out: LUCIFERASE INFECTION ASSAY - IC50): 5.61
O=C(CCN1c2ccccc2Sc2ccccc21)N1CCCS/C1=N\c1ccccc1	> 10	< 5.00	
Cc1nn(C)c2sc(C(=O)N(C)c3nc4ccccc4s3)cc12	> 10	< 5.00	
Cc1c(C(=O)OCc2ccccc2C(F)(F)F)sc2ncn(C)c(=O)c12	> 10	5.08	
COc1ccc(NC(=O)c2ccc(NC(=O)c3nc4nccc(C)n4n3)cc2)cc1	> 10	< 5.00	
CCc1ccc(CN2CCc3c(c(C(=O)N4CCCC(O)C4)nn3Cc3cccc(OC)c3)C2)cc1 (stereo not given)	> 6.75		pIC50 (PBLUC_HILL_SLOPE 17.4, PBLUC_R_SQUARED 0.568, read-out: LUCIFERASE INFECTION ASSAY - IC50): 5.19
COC(=O)c1c(NC(C)=O)c2cc(NC(C)Cc3ccccc3F)cnc2n1CCC(C)C (stereo not given)	> 7.26	< 5.14	
c1ccc(C2(c3ccccc3)CC2(c2ccccc2)c2ccccc2)cc1	8.97		pIC50 (FFLUC_HILL_SLOPE 10.4, FFLUC_R_SQUARED 0.239, PBLUC_HILL_SLOPE 23.3, PBLUC_R_SQUARED 0.151, read-out: LUCIFERASE INFECTION ASSAY - IC50): 5.09
COc1ncccc1CNC(=O)C1=COCCO1	> 10		pIC50 (PBLUC_HILL_SLOPE 1.77, PBLUC_R_SQUARED 0.251, read-out: LUCIFERASE INFECTION ASSAY - IC50): 5.23
Cc1ccc2ncnc(NCCc3ccccc3)c2c1	2.82		pIC50 (HEPG2TOX_HILL_SLOPE 0.814, HEPG2TOX_R_SQUARED 0.649, PBLUC_HILL_SLOPE 2.08, PBLUC_R_SQUARED 0.658, read-out: LUCIFERASE INFECTION ASSAY - IC50): 6.01
